Experiments:
[1] = test system: Bradykinin acetate (BK)-induced skin edema in mice; assay: Cutaneous edema: BK-induced plasma extravasation, Evans blue method (Experimental Groups IV); format: in vivo
Method: Male C57Bl/6 SPF mice (25±2 g, 6-week-old) were purchased from the animal house facilities at the São Paulo School of Medicine (Federal University of São Paulo, Brazil). They were group-housed in a temperature-controlled room at 22° C. with a 12/12-hour light/dark cycle, had free access to food and water and were allowed to acclimate to our local facility for one week before the start of the experimental procedures. The study agrees with the Ethical Principles for Animal Research established by the Brazilian College for Animal Experimentation (COBEA). According to the internal laboratory rules, euthanasia is performed if severe distress related to the test agents developed during the experiment. […] The vehicle for dissolution of the compounds was sterile saline solution (0.9% NaCl) containing 12.5% DMSO (Sigma Chemical Co., St. Louis, MO). The compound solutions were prepared at concentrations such that the administered dose per kg of body weight results from the intraperitoneal (i.p.) administration of 10 ml/kg of each of the solutions. Bradykinin acetate (BK; cat. B3259, Sigma Chemical Co., St. Louis, MO) and compound 48/80 (C48/80; cat. C2313, Sigma Chemical Co., St. […] Skin edema was assessed in mice according to the method previously described by Costa et al. (2006) and Yshii et al (2009). The mice were anesthetized with urethane (25% w/v, 10 ml/kg, i.p.), had their dorsal skin shaved, and thereafter i.p. treated with the vehicle/test compounds. Fifty-five minutes later, a volume of 100 μL of Evans blue dye solution (0.25% in sterile saline) was intravenously (i.v.) injected via the tail vein. Five minutes later, the BK and C48/80 were intradermally (i.d.) injected into the dorsal skin at a fixed volume of 50 μl using a randomized scheme. The same volume of Tyrode solution 50 μl was injected as a control. Thirty minutes later, a 1 ml blood sample was obtained via cardiac puncture and the mice were killed by urethane overdose followed by cervical dislocation. The blood samples were centrifuged at 6,000 g for 4 min to obtain the plasma. The dorsal skin was removed, and the injected sites were punched out using an 8 mm diameter cork borer. […] The dye was extracted from each piece of skin and plasma (100 μl) samples using formamide, and the absorbance of the resulting solutions was measured at 620 nm. The plasma extravasation due to each agent (expressed in μl/site) was calculated as the ratio between the absorbance of each respective skin piece, corrected by the blank value and plasma sample solutions, properly adjusted by the dilution factors. To homogenate data due to the variability of different group of animals (inter-group variations), edema data are expressed as the fold-change response relative to the mean Tyrode (control) response of each experiment.

[2] = test system: compound 48/80 (C48/80)-induced skin edema in mice; assay: Cutaneous edema: C48/80-induced plasma extravasation, Evans blue method (Experimental Groups IV); format: in vivo; conditions: for C48/80-induced edema: 0.70 μmol/kg i.p. (0.30 mg/kg Bud, 0.36 mg/kg Bud 21-P); for reduction of C48/80-induced plasma extravasation: 2.32 μmol/kg i.p. (1.0 mg/kg Bud, 1.2 mg/kg Bud 21-P), 60 min before i.d. C48/80
Method: Male C57Bl/6 SPF mice (25±2 g, 6-week-old) were purchased from the animal house facilities at the São Paulo School of Medicine (Federal University of São Paulo, Brazil). They were group-housed in a temperature-controlled room at 22° C. with a 12/12-hour light/dark cycle, had free access to food and water and were allowed to acclimate to our local facility for one week before the start of the experimental procedures. The study agrees with the Ethical Principles for Animal Research established by the Brazilian College for Animal Experimentation (COBEA). According to the internal laboratory rules, euthanasia is performed if severe distress related to the test agents developed during the experiment.
In Protocol 4, Bud (at doses of 1.0 and 0.30 mg/kg) and Bud 21-P (at doses of 1.2 and 0.36 mg/kg) were administered on a molar base, these doses were equivalent to […] μmol/kg of each compound, respectively. The vehicle for dissolution of the compounds was sterile saline solution (0.9% NaCl) containing 12.5% DMSO (Sigma Chemical Co., St. Louis, MO). The compound solutions were prepared at concentrations such that the administered dose per kg of body weight results from the intraperitoneal (i.p.) administration of 10 ml/kg of each of the solutions.
Skin edema was assessed in mice according to the method previously described by Costa et al. (2006) and Yshii et al (2009). The mice were anesthetized with urethane (25% w/v, 10 ml/kg, i.p.), had their dorsal skin shaved, and thereafter i.p. treated with the vehicle/test compounds. Fifty-five minutes later, a volume of 100 μL of Evans blue dye solution (0.25% in sterile saline) was intravenously (i.v.) injected via the tail vein. Five minutes later, the BK and C48/80 were intradermally (i.d.) injected into the dorsal skin at a fixed volume of 50 μl using a randomized scheme. The same volume of Tyrode solution 50 μl was injected as a control. Thirty minutes later, a 1 ml blood sample was obtained via cardiac puncture and the mice were killed by urethane overdose followed by cervical dislocation. The blood samples were centrifuged at 6,000 g for 4 min to obtain the plasma. […] The dye was extracted from each piece of skin and plasma (100 μl) samples using formamide, and the absorbance of the resulting solutions was measured at 620 nm. The plasma extravasation due to each agent (expressed in μl/site) was calculated as the ratio between the absorbance of each respective skin piece, corrected by the blank value and plasma sample solutions, properly adjusted by the dilution factors. To homogenate data due to the variability of different group of animals (inter-group variations), edema data are expressed as the fold-change response relative to the mean Tyrode (control) response of each experiment.

[3] = 0.70 μmol/kg i.p. (0.30 mg/kg Bud, 0.36 mg/kg Bud 21-P)
[4] = 2.32 μmol/kg i.p. (1.0 mg/kg Bud, 1.2 mg/kg Bud 21-P), 60 min before i.d. BK, measured 30 min after

Row | Compound | BK-induced plasma extravasation [1, 3] | BK-induced plasma extravasation [1, 4] | C48/80-induced edema [2] | reduction of C48/80-induced plasma extravasation [2]
1 | CCCC1OC2CC3C4CCC5=CC(=O)C=CC5(C)C4C(O)CC3(C)C2(C(=O)CO)O1 (stereo not drawn) [Bud, 11β,21-dihydroxy-16α,17α-(butylidenebis(oxy))pregna-1,4-diene-3.20-dione] | ineffective | abolished BK-induced response | ineffective | approximately 50%
2 | CCCC1OC2CC3C4CCC5=CC(=O)C=CC5(C)C4C(O)CC3(C)C2(C(=O)COP(=O)(O)O)O1 (centres unmarked) [B, Budesonide 21-phosphate] | significantly reduced the BK response | abolished BK-induced response | significantly inhibited C48180-induced edema | approximately 50%

Reference: US12465614B2, “Budesonide 21-phosphate salts and pharmaceutical compositions containing the same” (GENETIC S.P.A., priority 2020, dated 2025)
